IC50 and Activity data for three compounds are collected here from ChEMBL document CHEMBL5634086, “Small molecule inhibitors of NLRP3 inflammasome and GSK-3β in the management of traumatic brain injury: A review” (Eur J Med Chem, 2023).

In experiment [1] the target is NACHT, LRR and PYD domains-containing protein 3 (Homo sapiens, UniProt Q96P20). Description: Inhibition of NLRP3 inflammasome in LPS-induced […] cells assessed as reduction in IL-1beta release preincubated for 1 hr followed by ATP addition and measured after 30 mins by ELISA. Type of experiment: cell-based.
A short description of experiment [2]: Inhibition of LPS/ATP induced IL-1beta release in human THP-1 cells at 10 uM pretreated with LPS for 3 hrs followed by compound addition for 1 hr prior to ATP addition for another 1 hr by ELISA. It counts as functional. More on the design: scale not given: the % may be the effect or the level left. To be noted: time 2 hrs. For orientation: ELISA stands for enzyme-linked immunosorbent assay.

In experiment [3] the target is T1, Glycogen synthase kinase-3 beta (Homo sapiens, UniProt P49841). Description: Inhibition of GSK3beta (unknown origin) expressed in Sf9 cells incubated for 30 mins in presence of [gamma32P]ATP by scintillation counting method.
Experiment [4] addresses T1, Glycogen synthase kinase-3 beta. Description: Inhibition of GST-tagged GSK3beta (unknown origin).

T1 sequence (P49841 whole entry): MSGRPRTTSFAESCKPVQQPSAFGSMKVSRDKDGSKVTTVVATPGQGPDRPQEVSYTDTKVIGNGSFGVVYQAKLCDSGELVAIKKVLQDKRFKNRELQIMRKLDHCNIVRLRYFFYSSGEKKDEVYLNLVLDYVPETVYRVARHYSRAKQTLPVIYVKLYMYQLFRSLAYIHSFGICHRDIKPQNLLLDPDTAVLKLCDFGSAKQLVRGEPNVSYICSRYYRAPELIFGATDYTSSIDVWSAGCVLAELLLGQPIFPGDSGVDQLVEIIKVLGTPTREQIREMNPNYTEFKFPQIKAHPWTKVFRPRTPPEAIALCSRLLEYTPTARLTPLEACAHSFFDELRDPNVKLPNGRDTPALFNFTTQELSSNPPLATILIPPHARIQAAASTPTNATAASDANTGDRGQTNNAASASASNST
Chain of NACHT, LRR and PYD domains-containing protein 3 (Q96P20 whole entry, the tested form may be a part): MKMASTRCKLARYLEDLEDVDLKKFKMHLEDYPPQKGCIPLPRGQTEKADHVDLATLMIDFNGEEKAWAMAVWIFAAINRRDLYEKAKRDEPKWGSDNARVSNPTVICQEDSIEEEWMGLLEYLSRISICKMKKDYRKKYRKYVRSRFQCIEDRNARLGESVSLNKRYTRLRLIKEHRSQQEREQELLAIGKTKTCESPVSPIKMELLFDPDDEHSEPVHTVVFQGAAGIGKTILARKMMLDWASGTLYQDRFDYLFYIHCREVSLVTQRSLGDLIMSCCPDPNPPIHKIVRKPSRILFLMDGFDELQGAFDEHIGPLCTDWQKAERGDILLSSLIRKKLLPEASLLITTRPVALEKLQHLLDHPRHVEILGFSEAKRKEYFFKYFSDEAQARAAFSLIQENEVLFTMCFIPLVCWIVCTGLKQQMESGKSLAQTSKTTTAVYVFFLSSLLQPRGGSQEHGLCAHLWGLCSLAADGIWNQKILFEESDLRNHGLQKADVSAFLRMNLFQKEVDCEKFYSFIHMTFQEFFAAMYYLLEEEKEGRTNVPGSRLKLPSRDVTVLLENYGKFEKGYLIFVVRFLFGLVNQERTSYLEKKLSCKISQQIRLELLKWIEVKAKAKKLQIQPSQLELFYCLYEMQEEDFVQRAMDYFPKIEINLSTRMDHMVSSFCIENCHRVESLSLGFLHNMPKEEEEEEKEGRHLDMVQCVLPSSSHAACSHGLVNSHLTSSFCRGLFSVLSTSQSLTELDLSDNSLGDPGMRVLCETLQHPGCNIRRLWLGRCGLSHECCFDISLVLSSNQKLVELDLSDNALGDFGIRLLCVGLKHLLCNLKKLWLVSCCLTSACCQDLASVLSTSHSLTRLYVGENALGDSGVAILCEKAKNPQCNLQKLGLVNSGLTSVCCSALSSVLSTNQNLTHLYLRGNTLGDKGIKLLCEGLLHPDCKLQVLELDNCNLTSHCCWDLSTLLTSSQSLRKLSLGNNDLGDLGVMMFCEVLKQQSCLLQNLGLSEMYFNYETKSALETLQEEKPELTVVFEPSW

For `O=c1[nH]c(-c2ccc([N+](=O)[O-])cc2)nc2ccccc12`, the IC50 in experiment [1] is 5000 nM.

As to `c1cc2[nH]c(-c3cscn3)nc2cn1`, the Activity in experiment [2] was 30%.

In the case of `O=C1Cc2c([nH]c3ccc([N+](=O)[O-])cc23)-c2ncccc2N1`, the IC50 in experiment [3] and in experiment [4] was 4 nM each time.

A word on the IC50: it is the point on the concentration scale where inhibition reaches its midpoint.
